ChEMBL document CHEMBL1155514, “Analysis of kinase inhibitor selectivity using a thermodynamics-based partition index” (J Med Chem, 2010)

Target: T1, Aurora kinase B (Homo sapiens, UniProt Q96GD4)
Assay: Inhibition of Aurora B

T1 sequence (Q96GD4 whole entry): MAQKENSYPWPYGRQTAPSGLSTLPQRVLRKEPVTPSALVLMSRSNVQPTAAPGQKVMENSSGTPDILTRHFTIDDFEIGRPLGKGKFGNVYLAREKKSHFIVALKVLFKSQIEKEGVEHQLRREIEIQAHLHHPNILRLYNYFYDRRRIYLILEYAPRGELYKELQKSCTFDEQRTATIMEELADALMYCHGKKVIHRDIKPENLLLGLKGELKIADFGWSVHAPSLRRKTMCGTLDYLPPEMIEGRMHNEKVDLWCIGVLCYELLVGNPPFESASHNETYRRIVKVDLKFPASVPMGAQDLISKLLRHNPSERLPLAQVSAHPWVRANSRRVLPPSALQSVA

Compound	IC50 [nM]
CN1CCCC1CCNc1nccc(-c2cccnc2Oc2ccc(Nc3nc4ccccc4[nH]3)c3ccccc23)n1 (stereo unspecified)	47
CNc1nccc(-c2cccnc2Oc2ccc(Nc3nc4cc(C(F)(F)F)ccc4[nH]3)c3ccccc23)n1	56
CNc1nccc(-c2cccnc2Oc2ccc(NC(=O)Nc3ccccc3)c3ccccc23)n1	23
CNc1nccc(-c2cccnc2Oc2ccc(NC(=O)NC(C)(C)C)c3ccccc23)n1	55
CNc1nccc(-c2cccnc2Oc2ccc(Nc3nc4ccccc4o3)c3ccccc23)n1	134
CNc1nccc(-c2cccnc2Oc2ccc(Nc3nc4ccncc4[nH]3)c3ccccc23)n1	454
CNc1nccc(-c2cccnc2Oc2ccc(Nc3nc4ccccc4s3)c3ccccc23)n1	143
CNc1nccc(-c2cccnc2Oc2c(C)cc(Nc3nc4ccccc4[nH]3)c3ccccc23)n1	77
CN(C)CC(C)(C)CNc1nccc(-c2cccnc2Oc2ccc(Nc3nc4ccccc4[nH]3)c3ccccc23)n1	759
CCN1CCC(CNc2nccc(-c3cccnc3Oc3ccc(Nc4nc5ccccc5[nH]4)c4ccccc34)n2)CC1	100
CNc1nccc(-c2cccnc2Oc2ccc(Nc3nc4ccccc4[nH]3)c3ccccc23)n1	9

Target: T2, Vascular endothelial growth factor receptor 2 (Homo sapiens, UniProt P35968)
T2 sequence (P35968 whole entry): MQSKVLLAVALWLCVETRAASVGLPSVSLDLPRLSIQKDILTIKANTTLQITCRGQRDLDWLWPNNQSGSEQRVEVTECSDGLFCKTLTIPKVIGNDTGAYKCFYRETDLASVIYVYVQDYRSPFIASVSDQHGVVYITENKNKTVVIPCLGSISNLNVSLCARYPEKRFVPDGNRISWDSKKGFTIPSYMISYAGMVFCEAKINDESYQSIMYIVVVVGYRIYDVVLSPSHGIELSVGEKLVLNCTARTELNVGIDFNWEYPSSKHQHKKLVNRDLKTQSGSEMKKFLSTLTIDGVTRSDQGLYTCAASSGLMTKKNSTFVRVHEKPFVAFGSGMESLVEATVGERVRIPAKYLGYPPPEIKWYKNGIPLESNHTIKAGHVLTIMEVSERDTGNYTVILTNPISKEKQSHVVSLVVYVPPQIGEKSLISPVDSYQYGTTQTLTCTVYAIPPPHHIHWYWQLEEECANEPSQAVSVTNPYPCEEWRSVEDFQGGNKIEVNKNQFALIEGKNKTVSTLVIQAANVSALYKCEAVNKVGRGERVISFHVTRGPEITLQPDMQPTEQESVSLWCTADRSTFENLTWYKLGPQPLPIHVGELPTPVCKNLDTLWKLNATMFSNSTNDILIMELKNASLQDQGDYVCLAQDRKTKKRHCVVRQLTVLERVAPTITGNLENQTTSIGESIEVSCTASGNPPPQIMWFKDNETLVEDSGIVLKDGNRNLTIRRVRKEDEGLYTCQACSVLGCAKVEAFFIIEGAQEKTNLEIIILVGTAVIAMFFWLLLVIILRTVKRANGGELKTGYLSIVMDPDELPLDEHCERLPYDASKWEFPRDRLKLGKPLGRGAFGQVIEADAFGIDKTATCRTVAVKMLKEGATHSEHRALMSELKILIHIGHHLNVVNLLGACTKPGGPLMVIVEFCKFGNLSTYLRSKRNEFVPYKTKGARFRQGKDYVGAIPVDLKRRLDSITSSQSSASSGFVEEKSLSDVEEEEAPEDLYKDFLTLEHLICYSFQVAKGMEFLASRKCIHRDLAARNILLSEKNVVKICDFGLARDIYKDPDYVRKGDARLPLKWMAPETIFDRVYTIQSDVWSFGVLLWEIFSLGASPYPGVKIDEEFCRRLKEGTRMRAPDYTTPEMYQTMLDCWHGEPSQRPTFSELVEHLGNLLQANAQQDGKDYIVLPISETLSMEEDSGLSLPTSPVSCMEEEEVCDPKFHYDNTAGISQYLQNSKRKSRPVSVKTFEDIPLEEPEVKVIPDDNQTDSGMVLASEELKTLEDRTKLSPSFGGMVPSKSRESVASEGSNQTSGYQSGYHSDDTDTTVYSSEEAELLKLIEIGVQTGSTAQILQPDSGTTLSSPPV
Assay: Inhibition of KDR at 1 uM relative to control; values are per cent of control

Compound	residual activity [%]
CN1CCCC1CCNc1nccc(-c2cccnc2Oc2ccc(Nc3nc4ccccc4[nH]3)c3ccccc23)n1 (stereo unspecified)	67
CNc1nccc(-c2cccnc2Oc2ccc(NC(=O)Nc3ccccc3)c3ccccc23)n1	4
CNc1nccc(-c2cccnc2Oc2ccc(NC(=O)NC(C)(C)C)c3ccccc23)n1	69
CNc1nccc(-c2cccnc2Oc2ccc(Nc3nc4ccccc4o3)c3ccccc23)n1	3
CNc1nccc(-c2cccnc2Oc2ccc(Nc3nc4ccncc4[nH]3)c3ccccc23)n1	86
CNc1nccc(-c2cccnc2Oc2ccc(Nc3nc4ccc(C(F)(F)F)cc4[nH]3)c3ccccc23)n1	6
CNc1nccc(-c2cccnc2Oc2ccc(Nc3nc4ccccc4s3)c3ccccc23)n1	8
CNc1nccc(-c2cccnc2Oc2c(C)cc(Nc3nc4ccccc4[nH]3)c3ccccc23)n1	91
CN(C)CC(C)(C)CNc1nccc(-c2cccnc2Oc2ccc(Nc3nc4ccccc4[nH]3)c3ccccc23)n1	91
CCN1CCC(CNc2nccc(-c3cccnc3Oc3ccc(Nc4nc5ccccc5[nH]4)c4ccccc34)n2)CC1	64
CNc1nccc(-c2cccnc2Oc2ccc(Nc3nc4ccccc4[nH]3)c3ccccc23)n1	58

Target: T3, Angiopoietin-1 receptor (Homo sapiens, UniProt Q02763)
T3 sequence (Q02763 whole entry): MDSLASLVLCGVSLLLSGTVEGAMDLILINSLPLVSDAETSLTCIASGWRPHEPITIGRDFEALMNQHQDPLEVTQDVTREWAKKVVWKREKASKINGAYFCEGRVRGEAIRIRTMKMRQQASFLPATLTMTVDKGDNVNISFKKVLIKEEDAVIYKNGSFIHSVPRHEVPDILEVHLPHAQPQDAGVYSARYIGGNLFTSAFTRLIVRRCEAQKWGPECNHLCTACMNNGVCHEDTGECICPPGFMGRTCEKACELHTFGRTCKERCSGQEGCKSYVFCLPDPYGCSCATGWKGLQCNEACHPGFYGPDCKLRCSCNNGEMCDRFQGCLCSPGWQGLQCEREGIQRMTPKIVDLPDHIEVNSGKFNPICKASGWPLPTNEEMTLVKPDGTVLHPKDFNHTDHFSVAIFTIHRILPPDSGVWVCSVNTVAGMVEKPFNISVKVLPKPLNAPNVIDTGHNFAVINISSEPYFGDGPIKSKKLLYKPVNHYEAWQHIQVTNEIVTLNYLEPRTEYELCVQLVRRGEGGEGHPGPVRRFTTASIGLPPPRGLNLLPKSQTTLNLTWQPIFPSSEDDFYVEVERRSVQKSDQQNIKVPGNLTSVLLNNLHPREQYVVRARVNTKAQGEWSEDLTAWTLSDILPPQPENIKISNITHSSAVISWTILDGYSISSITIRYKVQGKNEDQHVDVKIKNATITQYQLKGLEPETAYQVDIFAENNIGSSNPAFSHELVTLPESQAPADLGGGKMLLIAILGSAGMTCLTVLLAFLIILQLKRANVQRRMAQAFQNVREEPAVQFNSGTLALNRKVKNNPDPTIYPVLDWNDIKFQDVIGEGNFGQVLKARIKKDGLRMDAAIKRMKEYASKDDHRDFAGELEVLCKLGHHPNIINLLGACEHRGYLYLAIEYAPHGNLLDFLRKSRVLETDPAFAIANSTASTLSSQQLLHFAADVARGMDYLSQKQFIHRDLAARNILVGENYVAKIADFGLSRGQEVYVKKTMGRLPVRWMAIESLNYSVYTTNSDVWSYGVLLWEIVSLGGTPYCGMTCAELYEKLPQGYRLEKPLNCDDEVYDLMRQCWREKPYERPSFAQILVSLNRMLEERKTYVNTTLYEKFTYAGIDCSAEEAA
Assay: Inhibition of Tie2 at 1 uM relative to control; values are per cent of control

Compound	residual activity [%]
CN1CCCC1CCNc1nccc(-c2cccnc2Oc2ccc(Nc3nc4ccccc4[nH]3)c3ccccc23)n1 (stereo unspecified)	0
CNc1nccc(-c2cccnc2Oc2ccc(NC(=O)Nc3ccccc3)c3ccccc23)n1	1
CNc1nccc(-c2cccnc2Oc2ccc(NC(=O)NC(C)(C)C)c3ccccc23)n1	18
CNc1nccc(-c2cccnc2Oc2ccc(Nc3nc4ccccc4o3)c3ccccc23)n1	2
CNc1nccc(-c2cccnc2Oc2ccc(Nc3nc4ccncc4[nH]3)c3ccccc23)n1	8
CNc1nccc(-c2cccnc2Oc2ccc(Nc3nc4ccc(C(F)(F)F)cc4[nH]3)c3ccccc23)n1	3
CNc1nccc(-c2cccnc2Oc2ccc(Nc3nc4ccccc4s3)c3ccccc23)n1	4
CNc1nccc(-c2cccnc2Oc2c(C)cc(Nc3nc4ccccc4[nH]3)c3ccccc23)n1	0
CN(C)CC(C)(C)CNc1nccc(-c2cccnc2Oc2ccc(Nc3nc4ccccc4[nH]3)c3ccccc23)n1	8
CCN1CCC(CNc2nccc(-c3cccnc3Oc3ccc(Nc4nc5ccccc5[nH]4)c4ccccc34)n2)CC1	0
CNc1nccc(-c2cccnc2Oc2ccc(Nc3nc4ccccc4[nH]3)c3ccccc23)n1	0

Target: T3, Angiopoietin-1 receptor
Assay: Inhibition of Tie2

Compound	IC50 [nM]
CN1CCCC1CCNc1nccc(-c2cccnc2Oc2ccc(Nc3nc4ccccc4[nH]3)c3ccccc23)n1 (stereo unspecified)	2
CNc1nccc(-c2cccnc2Oc2ccc(NC(=O)NC(C)(C)C)c3ccccc23)n1	215
CNc1nccc(-c2cccnc2Oc2ccc(Nc3nc4ccncc4[nH]3)c3ccccc23)n1	86
CN(C)CC(C)(C)CNc1nccc(-c2cccnc2Oc2ccc(Nc3nc4ccccc4[nH]3)c3ccccc23)n1	82
CCN1CCC(CNc2nccc(-c3cccnc3Oc3ccc(Nc4nc5ccccc5[nH]4)c4ccccc34)n2)CC1	1

Target: Tyrosine-protein kinase Lck (Homo sapiens, UniProt P06239)
Sequence (P06239 whole entry): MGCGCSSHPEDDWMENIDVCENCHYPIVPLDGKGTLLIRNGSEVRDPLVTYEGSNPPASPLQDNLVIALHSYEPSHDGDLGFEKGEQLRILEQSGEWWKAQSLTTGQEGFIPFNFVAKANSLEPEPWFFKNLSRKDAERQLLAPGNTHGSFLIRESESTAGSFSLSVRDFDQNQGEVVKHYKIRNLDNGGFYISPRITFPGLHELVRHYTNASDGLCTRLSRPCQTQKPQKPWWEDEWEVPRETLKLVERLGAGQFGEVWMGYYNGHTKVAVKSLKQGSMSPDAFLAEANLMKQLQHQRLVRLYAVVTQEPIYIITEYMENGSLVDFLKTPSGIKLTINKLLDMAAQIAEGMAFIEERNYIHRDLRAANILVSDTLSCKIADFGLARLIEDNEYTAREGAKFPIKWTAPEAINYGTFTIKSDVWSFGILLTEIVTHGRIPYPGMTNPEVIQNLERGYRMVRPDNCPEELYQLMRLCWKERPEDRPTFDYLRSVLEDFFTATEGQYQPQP
Assay: Inhibition of LCK

Compound	IC50 [nM]
CN1CCCC1CCNc1nccc(-c2cccnc2Oc2ccc(Nc3nc4ccccc4[nH]3)c3ccccc23)n1 (stereo unspecified)	269
CNc1nccc(-c2cccnc2Oc2ccc(Nc3nc4cc(C(F)(F)F)ccc4[nH]3)c3ccccc23)n1	132
CNc1nccc(-c2cccnc2Oc2ccc(NC(=O)Nc3ccccc3)c3ccccc23)n1	48
CNc1nccc(-c2cccnc2Oc2ccc(NC(=O)NC(C)(C)C)c3ccccc23)n1	4090
CNc1nccc(-c2cccnc2Oc2ccc(Nc3nc4ccccc4o3)c3ccccc23)n1	25
CNc1nccc(-c2cccnc2Oc2ccc(Nc3nc4ccncc4[nH]3)c3ccccc23)n1	4800
CNc1nccc(-c2cccnc2Oc2ccc(Nc3nc4ccccc4s3)c3ccccc23)n1	80
CNc1nccc(-c2cccnc2Oc2c(C)cc(Nc3nc4ccccc4[nH]3)c3ccccc23)n1	405
CN(C)CC(C)(C)CNc1nccc(-c2cccnc2Oc2ccc(Nc3nc4ccccc4[nH]3)c3ccccc23)n1	10000
CCN1CCC(CNc2nccc(-c3cccnc3Oc3ccc(Nc4nc5ccccc5[nH]4)c4ccccc34)n2)CC1	387
CNc1nccc(-c2cccnc2Oc2ccc(Nc3nc4ccccc4[nH]3)c3ccccc23)n1	292

Target: T2, Vascular endothelial growth factor receptor 2
Assay: Inhibition of KDR

Compound	IC50 [nM]
CN1CCCC1CCNc1nccc(-c2cccnc2Oc2ccc(Nc3nc4ccccc4[nH]3)c3ccccc23)n1 (stereo unspecified)	2060
CNc1nccc(-c2cccnc2Oc2ccc(NC(=O)NC(C)(C)C)c3ccccc23)n1	2220
CNc1nccc(-c2cccnc2Oc2ccc(Nc3nc4ccncc4[nH]3)c3ccccc23)n1	6360
CNc1nccc(-c2cccnc2Oc2c(C)cc(Nc3nc4ccccc4[nH]3)c3ccccc23)n1	10000
CN(C)CC(C)(C)CNc1nccc(-c2cccnc2Oc2ccc(Nc3nc4ccccc4[nH]3)c3ccccc23)n1	10000
CCN1CCC(CNc2nccc(-c3cccnc3Oc3ccc(Nc4nc5ccccc5[nH]4)c4ccccc34)n2)CC1	1750

System: not listed separately
Assay: Selectivity ratio of IC50 for LCK to IC50 for Tie2

Compound	Ratio IC50
CN1CCCC1CCNc1nccc(-c2cccnc2Oc2ccc(Nc3nc4ccccc4[nH]3)c3ccccc23)n1 (stereo unspecified)	120
CNc1nccc(-c2cccnc2Oc2ccc(NC(=O)Nc3ccccc3)c3ccccc23)n1	9
CNc1nccc(-c2cccnc2Oc2ccc(NC(=O)NC(C)(C)C)c3ccccc23)n1	19
CNc1nccc(-c2cccnc2Oc2ccc(Nc3nc4ccccc4o3)c3ccccc23)n1	2
CNc1nccc(-c2cccnc2Oc2ccc(Nc3nc4ccncc4[nH]3)c3ccccc23)n1	56
CNc1nccc(-c2cccnc2Oc2ccc(Nc3nc4ccc(C(F)(F)F)cc4[nH]3)c3ccccc23)n1	5
CNc1nccc(-c2cccnc2Oc2ccc(Nc3nc4ccccc4s3)c3ccccc23)n1	2
CN(C)CC(C)(C)CNc1nccc(-c2cccnc2Oc2ccc(Nc3nc4ccccc4[nH]3)c3ccccc23)n1	123
CCN1CCC(CNc2nccc(-c3cccnc3Oc3ccc(Nc4nc5ccccc5[nH]4)c4ccccc34)n2)CC1	387
CNc1nccc(-c2cccnc2Oc2ccc(Nc3nc4ccccc4[nH]3)c3ccccc23)n1	211

Target: T4, Aurora kinase A (Homo sapiens, UniProt O14965)
T4 sequence (O14965 whole entry): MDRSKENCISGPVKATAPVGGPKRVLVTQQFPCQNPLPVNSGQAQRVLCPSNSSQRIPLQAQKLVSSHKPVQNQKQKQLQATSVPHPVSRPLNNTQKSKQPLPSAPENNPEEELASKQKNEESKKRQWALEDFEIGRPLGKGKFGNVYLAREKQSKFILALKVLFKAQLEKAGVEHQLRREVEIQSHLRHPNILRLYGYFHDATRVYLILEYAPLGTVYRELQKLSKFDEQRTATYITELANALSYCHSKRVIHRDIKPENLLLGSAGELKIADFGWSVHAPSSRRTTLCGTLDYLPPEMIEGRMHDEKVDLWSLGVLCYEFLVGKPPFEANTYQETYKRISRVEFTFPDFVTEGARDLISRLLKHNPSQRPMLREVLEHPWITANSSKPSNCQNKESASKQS
Assay: Inhibition of Aurora A

Compound	IC50 [nM]
CN1CCCC1CCNc1nccc(-c2cccnc2Oc2ccc(Nc3nc4ccccc4[nH]3)c3ccccc23)n1 (stereo unspecified)	327
CNc1nccc(-c2cccnc2Oc2ccc(Nc3nc4cc(C(F)(F)F)ccc4[nH]3)c3ccccc23)n1	16
CNc1nccc(-c2cccnc2Oc2ccc(NC(=O)Nc3ccccc3)c3ccccc23)n1	52
CNc1nccc(-c2cccnc2Oc2ccc(NC(=O)NC(C)(C)C)c3ccccc23)n1	225
CNc1nccc(-c2cccnc2Oc2ccc(Nc3nc4ccccc4o3)c3ccccc23)n1	141
CNc1nccc(-c2cccnc2Oc2ccc(Nc3nc4ccncc4[nH]3)c3ccccc23)n1	1070
CNc1nccc(-c2cccnc2Oc2ccc(Nc3nc4ccccc4s3)c3ccccc23)n1	380
CNc1nccc(-c2cccnc2Oc2c(C)cc(Nc3nc4ccccc4[nH]3)c3ccccc23)n1	29
CN(C)CC(C)(C)CNc1nccc(-c2cccnc2Oc2ccc(Nc3nc4ccccc4[nH]3)c3ccccc23)n1	1660
CCN1CCC(CNc2nccc(-c3cccnc3Oc3ccc(Nc4nc5ccccc5[nH]4)c4ccccc34)n2)CC1	332

Target: T5, Aurora kinase A (Homo sapiens) (UniProt O14965)
T5 sequence (whole entry): T4 sequence (O14965 whole entry)
Assay: Inhibition of Aurora A at 1 uM relative to control; values are per cent of control

Compound	residual activity [%]
CN1CCCC1CCNc1nccc(-c2cccnc2Oc2ccc(Nc3nc4ccccc4[nH]3)c3ccccc23)n1 (stereo unspecified)	25
CNc1nccc(-c2cccnc2Oc2ccc(NC(=O)Nc3ccccc3)c3ccccc23)n1	5
CNc1nccc(-c2cccnc2Oc2ccc(NC(=O)NC(C)(C)C)c3ccccc23)n1	18
CNc1nccc(-c2cccnc2Oc2ccc(Nc3nc4ccccc4o3)c3ccccc23)n1	12
CNc1nccc(-c2cccnc2Oc2ccc(Nc3nc4ccncc4[nH]3)c3ccccc23)n1	52
CNc1nccc(-c2cccnc2Oc2ccc(Nc3nc4ccc(C(F)(F)F)cc4[nH]3)c3ccccc23)n1	2
CNc1nccc(-c2cccnc2Oc2ccc(Nc3nc4ccccc4s3)c3ccccc23)n1	28
CNc1nccc(-c2cccnc2Oc2c(C)cc(Nc3nc4ccccc4[nH]3)c3ccccc23)n1	3
CN(C)CC(C)(C)CNc1nccc(-c2cccnc2Oc2ccc(Nc3nc4ccccc4[nH]3)c3ccccc23)n1	62
CCN1CCC(CNc2nccc(-c3cccnc3Oc3ccc(Nc4nc5ccccc5[nH]4)c4ccccc34)n2)CC1	25
CNc1nccc(-c2cccnc2Oc2ccc(Nc3nc4ccccc4[nH]3)c3ccccc23)n1	2

System: not listed separately
Assay: Selectivity ratio of IC50 for KDR to IC50 for Tie2

Compound	Ratio IC50
CNc1nccc(-c2cccnc2Oc2ccc(NC(=O)Nc3ccccc3)c3ccccc23)n1	7
CNc1nccc(-c2cccnc2Oc2ccc(NC(=O)NC(C)(C)C)c3ccccc23)n1	10
CNc1nccc(-c2cccnc2Oc2ccc(Nc3nc4ccccc4o3)c3ccccc23)n1	2
CNc1nccc(-c2cccnc2Oc2ccc(Nc3nc4ccncc4[nH]3)c3ccccc23)n1	74
CNc1nccc(-c2cccnc2Oc2ccc(Nc3nc4ccc(C(F)(F)F)cc4[nH]3)c3ccccc23)n1	3
CNc1nccc(-c2cccnc2Oc2ccc(Nc3nc4ccccc4s3)c3ccccc23)n1	2
CN(C)CC(C)(C)CNc1nccc(-c2cccnc2Oc2ccc(Nc3nc4ccccc4[nH]3)c3ccccc23)n1	123
CCN1CCC(CNc2nccc(-c3cccnc3Oc3ccc(Nc4nc5ccccc5[nH]4)c4ccccc34)n2)CC1	1750
CNc1nccc(-c2cccnc2Oc2ccc(Nc3nc4ccccc4[nH]3)c3ccccc23)n1	998

System: not listed separately
Assay: Selectivity ratio of IC50 for Aurora A to IC50 for Tie2

Compound	Ratio IC50
CN1CCCC1CCNc1nccc(-c2cccnc2Oc2ccc(Nc3nc4ccccc4[nH]3)c3ccccc23)n1 (stereo unspecified)	146
CNc1nccc(-c2cccnc2Oc2ccc(NC(=O)Nc3ccccc3)c3ccccc23)n1	10
CNc1nccc(-c2cccnc2Oc2ccc(NC(=O)NC(C)(C)C)c3ccccc23)n1	1
CNc1nccc(-c2cccnc2Oc2ccc(Nc3nc4ccccc4o3)c3ccccc23)n1	9
CNc1nccc(-c2cccnc2Oc2ccc(Nc3nc4ccncc4[nH]3)c3ccccc23)n1	12
CNc1nccc(-c2cccnc2Oc2ccc(Nc3nc4ccc(C(F)(F)F)cc4[nH]3)c3ccccc23)n1	1
CNc1nccc(-c2cccnc2Oc2ccc(Nc3nc4ccccc4s3)c3ccccc23)n1	9
CN(C)CC(C)(C)CNc1nccc(-c2cccnc2Oc2ccc(Nc3nc4ccccc4[nH]3)c3ccccc23)n1	20
CCN1CCC(CNc2nccc(-c3cccnc3Oc3ccc(Nc4nc5ccccc5[nH]4)c4ccccc34)n2)CC1	332
CNc1nccc(-c2cccnc2Oc2ccc(Nc3nc4ccccc4[nH]3)c3ccccc23)n1	14

System: not listed separately
Assay: Selectivity ratio of IC50 for Aurora B to IC50 for Tie2

Compound	Ratio IC50
CN1CCCC1CCNc1nccc(-c2cccnc2Oc2ccc(Nc3nc4ccccc4[nH]3)c3ccccc23)n1 (stereo unspecified)	21
CNc1nccc(-c2cccnc2Oc2ccc(NC(=O)Nc3ccccc3)c3ccccc23)n1	4
CNc1nccc(-c2cccnc2Oc2ccc(NC(=O)NC(C)(C)C)c3ccccc23)n1	0.1
CNc1nccc(-c2cccnc2Oc2ccc(Nc3nc4ccccc4o3)c3ccccc23)n1	3
CNc1nccc(-c2cccnc2Oc2ccc(Nc3nc4ccncc4[nH]3)c3ccccc23)n1	5
CNc1nccc(-c2cccnc2Oc2ccc(Nc3nc4ccc(C(F)(F)F)cc4[nH]3)c3ccccc23)n1	2
CNc1nccc(-c2cccnc2Oc2ccc(Nc3nc4ccccc4s3)c3ccccc23)n1	3
CN(C)CC(C)(C)CNc1nccc(-c2cccnc2Oc2ccc(Nc3nc4ccccc4[nH]3)c3ccccc23)n1	9
CCN1CCC(CNc2nccc(-c3cccnc3Oc3ccc(Nc4nc5ccccc5[nH]4)c4ccccc34)n2)CC1	100
CNc1nccc(-c2cccnc2Oc2ccc(Nc3nc4ccccc4[nH]3)c3ccccc23)n1	7

Target: T1, Aurora kinase B
Assay: Inhibition of Aurora B at 1 uM relative to control; values are per cent of control

Compound	residual activity [%]
CN1CCCC1CCNc1nccc(-c2cccnc2Oc2ccc(Nc3nc4ccccc4[nH]3)c3ccccc23)n1 (stereo unspecified)	4
CNc1nccc(-c2cccnc2Oc2ccc(NC(=O)Nc3ccccc3)c3ccccc23)n1	2
CNc1nccc(-c2cccnc2Oc2ccc(NC(=O)NC(C)(C)C)c3ccccc23)n1	5
CNc1nccc(-c2cccnc2Oc2ccc(Nc3nc4ccccc4o3)c3ccccc23)n1	12
CNc1nccc(-c2cccnc2Oc2ccc(Nc3nc4ccncc4[nH]3)c3ccccc23)n1	31
CNc1nccc(-c2cccnc2Oc2ccc(Nc3nc4ccc(C(F)(F)F)cc4[nH]3)c3ccccc23)n1	5
CNc1nccc(-c2cccnc2Oc2ccc(Nc3nc4ccccc4s3)c3ccccc23)n1	13
CNc1nccc(-c2cccnc2Oc2c(C)cc(Nc3nc4ccccc4[nH]3)c3ccccc23)n1	7
CN(C)CC(C)(C)CNc1nccc(-c2cccnc2Oc2ccc(Nc3nc4ccccc4[nH]3)c3ccccc23)n1	43
CCN1CCC(CNc2nccc(-c3cccnc3Oc3ccc(Nc4nc5ccccc5[nH]4)c4ccccc34)n2)CC1	9
CNc1nccc(-c2cccnc2Oc2ccc(Nc3nc4ccccc4[nH]3)c3ccccc23)n1	1
